Several values for one entry are separate records, joined by “and”; a condition that tells them apart may be missing. Identical values can stand only once.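 Test compounds were applied to cells in 96-well plates for 48 hours at 5 doses. At the GI50, growth is halved. Definition used: TGI = concentration required for complete inhibition of growth.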
Experiments:
Experiment in all cases: NCI anticancer screen, dose series, 48 h
[1] = system: DU-145 prostate
[2] = system: HL-60(TB) leukemia
[3] = system: HT29 colon
[4] = system: M14 melanoma
[5] = system: MALME-3M melanoma
[6] = system: OVCAR-3 ovarian
[7] = system: OVCAR-4 ovarian
[8] = system: SF-539 CNS
[9] = system: SK-MEL-5 melanoma
[10] = system: UO-31 renal

SMILES | GI50 [1] | TGI [1] | GI50 [2] | TGI [2] | GI50 [3] [µM] | TGI [3] [µM] | GI50 [4] | TGI [4] | GI50 [5] [µM] | TGI [5] [µM] | GI50 [6] | TGI [6] | GI50 [7] | TGI [7] | GI50 [8] | TGI [8] | GI50 [9] | TGI [9] | GI50 [10] | TGI [10]
CC12CCC(O)CC1=CCC1C2CCC2(C)C(c3cccnc3)=CCC12 (stereo not given) | > 100 µM | > 100 µM | > 100 µM | > 100 µM | 82.2 | > 100 | > 100 µM | > 100 µM | > 100 | > 100 | > 100 µM | > 100 µM | > 100 µM | > 100 µM | > 100 µM | > 100 µM | 74.2 µM | > 100 µM | > 100 µM | > 100 µM
CN(C)CCOc1ccc(-c2cc(-c3ccc4c(c3)CC/C4=N\O)c(-c3ccncc3)o2)cc1 | 3.78 µM | 7.38 µM | 5.46 µM | 10.8 µM | 0.451 | 4.39 | 0.0653 µM | 3.39 µM | 0.0245 | 0.179 | 4.38 µM | 8.16 µM | 5.16 µM | 11.2 µM | 3.64 µM | 7.41 µM | 2.2 µM | 5.86 µM | 5.21 µM | 9.47 µM
CCOC(=O)c1nc2cc(C(F)(F)F)ccc2[n+]([O-])c1C | > 100 µM | > 100 µM | > 100 µM | > 100 µM | > 100 | > 100 | > 100 µM | > 100 µM | > 100 | > 100 | > 100 µM | > 100 µM | > 100 µM | > 100 µM | > 100 µM | > 100 µM | > 100 µM | > 100 µM | > 100 µM | > 100 µM
O=Nc1c(O)c2ccccc2c2ccccc12 | 0.961 µM | 2.23 µM | 2.47 µM | 7.97 µM | 2.83 | 7.88 | 0.446 µM | 1.6 µM | 1.47 | 3.03 | 0.754 µM | 2.45 µM | 0.198 µM | 0.48 µM | 0.379 µM | 1.6 µM | 0.56 µM | 1.77 µM | 1.35 µM | 3.3 µM
Cc1cc(O)cc(C)c1/C=C/c1cncc(C(=O)OC(C)(C)C)c1 | 17 µM | > 25 µM | 8.65 µM | 22.7 µM | > 16.8 | > 25 | > 24 µM | > 25 µM | > 16.6 | > 25 | 17 µM | > 25 µM | 12.2 µM | > 25 µM | > 18.5 µM | > 25 µM | 10.2 µM | > 25 µM | 8.34 µM | > 25 µM
O=C(c1ccccc1O)c1[nH]c(Cl)c(Cl)c1-n1c(C(=O)c2ccccc2O)cc(Cl)c1Cl | 2.25 µM and 1.81 µM | 16.3 µM and 16.6 µM | 1.19 µM and 0.432 µM | 5.48 µM and 3.58 µM | 2 | 12.8 | 1.46 µM and 1.44 µM | 5.9 µM and 7.76 µM | 1.37 | 5.18 | 1.03 µM and 0.704 µM | 13.1 µM and 13.4 µM | 2.41 µM and 1.86 µM | 19.4 µM and 10.7 µM | 1.67 µM and 1.74 µM | 10.1 µM and 10.9 µM | 0.314 µM and 0.22 µM | 1.38 µM and 0.589 µM | 2.6 µM and 2.02 µM | 11.4 µM and 6.95 µM
CC(=O)c1ccc2c(c1)N(CCCN(C)C)c1ccccc1S2 | 17.1 µM | 34.3 µM | 14 µM | 41 µM | 11.2 | 28.4 | 14.9 µM | 30 µM | 17.9 | 38.3 | 16.5 µM | 31.4 µM | 18.5 µM | 65.2 µM | 13.7 µM | 28.2 µM | 13.2 µM | 26.2 µM | 13.5 µM | 29.1 µM
CCN(Cc1cccc(F)c1F)c1ccc(CO)c(Cl)c1 | 18.8 µM | 55.6 µM | 7.25 µM | 41.2 µM | 3.83 | 19 | 17.9 µM | 35.1 µM | 16 | 34.2 | 0.304 µM | 1.28 µM | 0.127 µM | 1.24 µM | 15.5 µM | 30.2 µM | 11.2 µM | 23.4 µM | 2.35 µM | 32.1 µM
Nc1cc2nc3ccccc3oc-2cc1=O | 1.57 µM | 2.98 µM | 3.19 µM | > 100 µM | 2.58 | > 21.7 | 1.61 µM | 3.01 µM | 1.67 | 3.63 | 3.54 µM | 29.3 µM | 23.4 µM | > 100 µM | 2.45 µM | 6.75 µM | 1.16 µM | 2.38 µM | 1.77 µM | 10.4 µM
